Data on seven compounds can be found in ChEMBL document CHEMBL1201862, “PubChem BioAssay data set” (2004).

For assay [1], the target named is 5-hydroxytryptamine receptor 1A (Homo sapiens, UniProt P08908). Type of assay: functional.
In assay [2] the target is T1, Bcl-2-related protein A1 (Mus musculus, UniProt Q07440).
T1 sequence (Q07440 whole entry): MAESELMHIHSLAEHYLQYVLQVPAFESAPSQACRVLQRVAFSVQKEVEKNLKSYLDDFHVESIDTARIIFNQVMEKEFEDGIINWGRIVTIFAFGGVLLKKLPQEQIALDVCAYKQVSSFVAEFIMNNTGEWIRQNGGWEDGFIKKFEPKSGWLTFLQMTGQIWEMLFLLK
The assay can be described thus: small-molecule antagonists of Bfl-1/BH3 interaction – biochemical, TR-FRET, mouse Bfl-1, confirmation (AID 621).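 Also: TR-FRET binding of GST-Bfl-1 to FITC-labelled Bid peptide via terbium antibody.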 Background: TR-FRET usually uses a lanthanide donor and a delayed reading to cut background.

The target in assay [3] is T1, Bcl-2-related protein A1. As to the kind of experiment: Bfl-1 binding inhibitors, SAR follow-up, biochemical, fluorescence polarization (AID 1070). A general note: Polarisation of emitted light reports the rotation of a fluorescent probe.
Assay [4] addresses Voltage-gated inwardly rectifying potassium channel KCNH2 (Homo sapiens, UniProt Q12809). As to the kind of experiment: concentration-dependent hERG rescue from blockers – cell-based, thallium flux, dose response (AID 2121). Type of assay: ADME. A general note: The hERG channel carries a current that helps repolarise heart muscle cells.
The nature of assay [5]: viability of uninfected HEp-2 cells – cell-based, HTS, cytotoxicity control for RSV inhibitor project, dose response (AID 2410). Type of assay: functional. The following applies: human respiratory syncytial virus.
Assay [6] in a line: Luminescence Cell-Based Dose Retest to Confirm Inhibitors of Cancer Stem Cells. [Related pubchem assays (depositor defined):AID2717, AID2721]. Type of assay: functional. Particulars: Homo sapiens.
The nature of assay [7]: microbe, parasite or virus in culture. The format is functional. Particulars: Mycobacterium tuberculosis.
The target of assay [8] is Epstein-Barr nuclear antigen 1 (Epstein-Barr virus (strain B95-8) (HHV-4) (Human herpesvirus 4), UniProt P03211). The assay can be described thus: inhibition of EBV nuclear antigen 1 DNA binding – biochemical, fluorescence polarization, 1536-well, dose response (AID 2381).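 Also: fluorescence polarization of a Cy5 DNA probe bound by EBNA-1 protein.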 Details: species or system human gammaherpesvirus 4.
For assay [9], the target named is Lytic switch protein BZLF1 (Epstein-Barr virus (strain B95-8) (HHV-4) (Human herpesvirus 4), UniProt P03206). As to the kind of experiment: inhibition of BZLF1 ZTA DNA binding – biochemical, fluorescence polarization, Epstein-Barr virus, 1536-well, counter-screen for EBNA-1 inhibitor project, dose response (AID 2377).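 Also: fluorescence polarization of Cy5-labelled ZRE DNA probe bound by purified Zta.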 Details: species or system human gammaherpesvirus 4.

The target in the next assay is T2, Estrogen receptor (Homo sapiens, UniProt P03372).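 Also: potency for inhibiting coactivator peptide recruitment to the receptor.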
T2 sequence (P03372 whole entry): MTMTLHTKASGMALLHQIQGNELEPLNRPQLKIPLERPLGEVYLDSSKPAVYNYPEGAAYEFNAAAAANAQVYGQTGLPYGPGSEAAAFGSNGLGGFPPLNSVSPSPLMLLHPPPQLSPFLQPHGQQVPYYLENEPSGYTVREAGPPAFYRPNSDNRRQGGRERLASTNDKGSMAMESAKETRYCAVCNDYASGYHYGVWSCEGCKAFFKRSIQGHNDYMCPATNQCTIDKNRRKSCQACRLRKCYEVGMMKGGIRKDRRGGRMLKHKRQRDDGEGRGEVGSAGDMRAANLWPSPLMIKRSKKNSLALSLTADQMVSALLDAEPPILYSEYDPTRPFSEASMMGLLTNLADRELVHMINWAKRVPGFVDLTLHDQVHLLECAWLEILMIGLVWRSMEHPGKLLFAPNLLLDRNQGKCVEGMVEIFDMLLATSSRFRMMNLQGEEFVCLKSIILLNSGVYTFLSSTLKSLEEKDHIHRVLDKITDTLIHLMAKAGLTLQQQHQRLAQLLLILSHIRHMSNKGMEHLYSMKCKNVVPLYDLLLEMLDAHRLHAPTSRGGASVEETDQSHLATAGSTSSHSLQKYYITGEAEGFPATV

Assay [10] relates to HEK293. The assay can be described thus: cells. The following applies: Homo sapiens.
For assay [11], the system named is HEK293. The assay can be described thus: cells. Particulars: Homo sapiens. The source holds these as a separate data set.
In a further assay the target is Galanin receptor type 2 (Homo sapiens, UniProt O43603). The assay can be described thus: Dose Response cell-based high-throughput screening assay to identify antagonists of galanin receptor 2 (GALR2). [Related pubchem assays: 828, 866 ]. The format is functional.

Calls of active or inactive are those of the source. A value given as a limit tells only on which side of the number the result lay.
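For AC50 in this document: cells exposed to compound for roughly 70 hours or longer before luminescence read.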

Sequence of Voltage-gated inwardly rectifying potassium channel KCNH2 (Q12809 whole entry): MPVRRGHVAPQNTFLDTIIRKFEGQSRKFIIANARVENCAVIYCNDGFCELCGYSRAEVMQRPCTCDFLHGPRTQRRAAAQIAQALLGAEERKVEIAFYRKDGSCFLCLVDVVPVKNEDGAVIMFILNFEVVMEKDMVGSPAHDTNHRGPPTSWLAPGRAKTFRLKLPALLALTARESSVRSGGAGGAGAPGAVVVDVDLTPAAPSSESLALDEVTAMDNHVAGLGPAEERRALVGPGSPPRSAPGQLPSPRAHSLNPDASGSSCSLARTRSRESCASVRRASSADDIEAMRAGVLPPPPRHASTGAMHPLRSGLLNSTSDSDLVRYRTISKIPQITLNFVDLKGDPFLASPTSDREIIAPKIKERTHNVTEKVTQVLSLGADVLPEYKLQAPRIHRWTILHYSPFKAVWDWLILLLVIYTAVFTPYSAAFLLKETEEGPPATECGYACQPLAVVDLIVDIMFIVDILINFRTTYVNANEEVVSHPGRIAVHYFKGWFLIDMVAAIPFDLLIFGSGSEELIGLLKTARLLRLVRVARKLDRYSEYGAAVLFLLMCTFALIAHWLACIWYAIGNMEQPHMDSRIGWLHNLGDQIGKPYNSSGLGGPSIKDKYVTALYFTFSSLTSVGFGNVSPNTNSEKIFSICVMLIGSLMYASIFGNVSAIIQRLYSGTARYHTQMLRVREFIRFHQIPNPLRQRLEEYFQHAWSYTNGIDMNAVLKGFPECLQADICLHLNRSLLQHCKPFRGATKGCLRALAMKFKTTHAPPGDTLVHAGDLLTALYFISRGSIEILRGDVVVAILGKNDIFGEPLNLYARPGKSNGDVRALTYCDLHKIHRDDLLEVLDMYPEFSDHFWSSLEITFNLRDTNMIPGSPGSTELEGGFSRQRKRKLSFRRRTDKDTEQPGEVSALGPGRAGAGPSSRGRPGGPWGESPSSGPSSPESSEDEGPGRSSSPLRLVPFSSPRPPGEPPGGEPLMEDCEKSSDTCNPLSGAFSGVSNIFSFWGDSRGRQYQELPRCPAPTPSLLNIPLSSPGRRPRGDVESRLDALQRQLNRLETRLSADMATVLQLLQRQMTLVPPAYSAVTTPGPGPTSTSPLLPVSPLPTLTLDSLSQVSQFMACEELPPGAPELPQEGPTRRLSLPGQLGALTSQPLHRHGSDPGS
Sequence of Epstein-Barr nuclear antigen 1 (P03211 whole entry): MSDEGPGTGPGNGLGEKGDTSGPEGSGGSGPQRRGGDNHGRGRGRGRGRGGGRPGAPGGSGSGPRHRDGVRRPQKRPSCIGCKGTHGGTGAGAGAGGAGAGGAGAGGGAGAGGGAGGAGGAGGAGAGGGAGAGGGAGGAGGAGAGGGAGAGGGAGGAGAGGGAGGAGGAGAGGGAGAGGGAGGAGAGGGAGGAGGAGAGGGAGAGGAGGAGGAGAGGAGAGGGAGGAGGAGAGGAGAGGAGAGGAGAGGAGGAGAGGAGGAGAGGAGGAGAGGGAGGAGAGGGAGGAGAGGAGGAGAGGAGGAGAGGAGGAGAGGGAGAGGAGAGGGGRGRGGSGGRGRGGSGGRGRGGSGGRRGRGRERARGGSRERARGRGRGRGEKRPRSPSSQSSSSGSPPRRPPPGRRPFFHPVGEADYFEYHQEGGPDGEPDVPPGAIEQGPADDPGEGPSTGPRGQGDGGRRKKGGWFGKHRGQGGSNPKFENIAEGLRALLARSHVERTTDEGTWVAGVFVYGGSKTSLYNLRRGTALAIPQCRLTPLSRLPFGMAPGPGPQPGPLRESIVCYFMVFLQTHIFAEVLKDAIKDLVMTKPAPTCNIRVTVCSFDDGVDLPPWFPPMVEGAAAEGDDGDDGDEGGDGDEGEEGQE
Sequence of 5-hydroxytryptamine receptor 1A (P08908 whole entry): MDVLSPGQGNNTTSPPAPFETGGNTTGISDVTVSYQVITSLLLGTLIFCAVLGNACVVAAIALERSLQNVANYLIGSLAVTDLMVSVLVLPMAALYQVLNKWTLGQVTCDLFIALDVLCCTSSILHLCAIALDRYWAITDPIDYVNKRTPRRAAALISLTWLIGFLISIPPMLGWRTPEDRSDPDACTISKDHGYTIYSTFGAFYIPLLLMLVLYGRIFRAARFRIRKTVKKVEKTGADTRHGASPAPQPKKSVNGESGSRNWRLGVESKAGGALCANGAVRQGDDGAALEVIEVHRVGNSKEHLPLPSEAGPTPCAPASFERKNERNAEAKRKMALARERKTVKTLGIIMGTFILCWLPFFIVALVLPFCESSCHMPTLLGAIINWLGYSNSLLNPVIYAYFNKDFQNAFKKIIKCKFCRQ
Sequence of Lytic switch protein BZLF1 (P03206 whole entry): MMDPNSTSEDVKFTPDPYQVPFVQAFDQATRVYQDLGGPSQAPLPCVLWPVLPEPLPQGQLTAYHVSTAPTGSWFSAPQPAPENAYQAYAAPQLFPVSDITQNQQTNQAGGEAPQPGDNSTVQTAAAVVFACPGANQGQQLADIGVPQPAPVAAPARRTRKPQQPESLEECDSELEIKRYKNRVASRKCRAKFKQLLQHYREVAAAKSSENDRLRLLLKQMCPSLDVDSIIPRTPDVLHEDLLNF
Sequence of Galanin receptor type 2 (O43603 whole entry): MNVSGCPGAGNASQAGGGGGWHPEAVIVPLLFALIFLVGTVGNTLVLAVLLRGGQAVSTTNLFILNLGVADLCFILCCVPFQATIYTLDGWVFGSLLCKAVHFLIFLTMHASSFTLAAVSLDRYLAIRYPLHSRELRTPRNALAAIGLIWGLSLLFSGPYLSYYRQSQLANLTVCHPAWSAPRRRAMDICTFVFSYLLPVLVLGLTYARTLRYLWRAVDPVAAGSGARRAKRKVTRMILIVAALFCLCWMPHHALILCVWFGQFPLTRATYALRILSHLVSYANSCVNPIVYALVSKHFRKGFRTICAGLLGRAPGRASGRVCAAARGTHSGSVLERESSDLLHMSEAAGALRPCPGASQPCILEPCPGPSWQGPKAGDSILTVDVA

By EC50 is commonly meant the concentration giving half of the maximal effect. As for `CN1CC=C(c2c[nH]c3ccccc23)CC1`, the EC50 in [1] is given as 12 µM (not active).
As usually defined, the IC50 is the point on the concentration scale where inhibition reaches its midpoint. With `c1ccc(-n2nnc(-c3cnc4ccccc4c3)n2)cc1`, the IC50 against Bcl-2-related protein A1 [2] and at Bcl-2-related protein A1 [3] was > 100 µM (not active) each time.
The term AC50 denotes the midpoint of the concentration-response curve, whichever way the signal moves. On to `O=C(NC(=S)Nc1ccc(N2CCCCC2)c(Cl)c1)c1cccs1`, for which, in assay [4], the EC50 is 0.2 µM (active). Also, the CC50 was 17.3 µM (active) in assay [5] and > 40 µM (active) in assay [7]. In addition, the AC50 in [6] is 6.16 µM (active).
With `COc1ccc(NC(=O)NCc2ccc3c(c2)OCO3)c(OC)c1`, the IC50 in assay [8] is on record as 18.3 µM (not active); in assay [9] it was > 111 µM (not active).
In the case of `CC1CCCCC1NC(=S)NC(=O)c1sc2ccccc2c1Cl` (centres undefined), the EC50 in assay [4] is 4.87 µM (active).
On to `O=C(Nc1ccccc1[N+](=O)[O-])C1=C(O)CCn2c1nc1ccccc12`, for which the IC50 on Estrogen receptor is 18.6 µM (active). In addition, the EC50 in the assay on HEK293 [10] and in the assay on HEK293 [11] was > 59.7 µM (inactive) in each case.
As to `Cc1ccc(S(=O)(=O)NCc2ccncc2)cc1`, at Galanin receptor type 2, the 50% inhibitory concentration (IC50) is > 42 µM (not active).
